Consider 19 compounds from patent US7001921B1, “Cell adhesion inhibitors” (Biogen Idec MA Inc., priority 1995, dated 2006).

For the assay, the target named is T1, VLA4 (Homo sapiens, UniProt P05556+P13612).
T1 construct: endogenous in cells; host or cells: Ramos cells
Kind of assay: Inhibition of VLA4-dependent adhesion to BSA-CS1 (labelled Ramos cells). The following applies: binding of BCECF-AM labelled Ramos cells to CS1 peptide-coated wells, 2 mM MnCl2, 30 minutes at room temperature; IC50 range. The assay is classed as cell-based. In short, it runs like this:
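Ramos cells labelled with 2 μM BCECF-AM, with 2 mM MnCl2 added to upregulate VLA4, were incubated with test compound (final 0.01 nM–10 μM, triplicate) on BSA-CS1-coated wells for 30 min at room temperature in TRIS buffer pH 7.4. After washing, bound fluorescence was read, with uncoated wells giving non-specific binding.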

T1 sequence (P13612 34-1032): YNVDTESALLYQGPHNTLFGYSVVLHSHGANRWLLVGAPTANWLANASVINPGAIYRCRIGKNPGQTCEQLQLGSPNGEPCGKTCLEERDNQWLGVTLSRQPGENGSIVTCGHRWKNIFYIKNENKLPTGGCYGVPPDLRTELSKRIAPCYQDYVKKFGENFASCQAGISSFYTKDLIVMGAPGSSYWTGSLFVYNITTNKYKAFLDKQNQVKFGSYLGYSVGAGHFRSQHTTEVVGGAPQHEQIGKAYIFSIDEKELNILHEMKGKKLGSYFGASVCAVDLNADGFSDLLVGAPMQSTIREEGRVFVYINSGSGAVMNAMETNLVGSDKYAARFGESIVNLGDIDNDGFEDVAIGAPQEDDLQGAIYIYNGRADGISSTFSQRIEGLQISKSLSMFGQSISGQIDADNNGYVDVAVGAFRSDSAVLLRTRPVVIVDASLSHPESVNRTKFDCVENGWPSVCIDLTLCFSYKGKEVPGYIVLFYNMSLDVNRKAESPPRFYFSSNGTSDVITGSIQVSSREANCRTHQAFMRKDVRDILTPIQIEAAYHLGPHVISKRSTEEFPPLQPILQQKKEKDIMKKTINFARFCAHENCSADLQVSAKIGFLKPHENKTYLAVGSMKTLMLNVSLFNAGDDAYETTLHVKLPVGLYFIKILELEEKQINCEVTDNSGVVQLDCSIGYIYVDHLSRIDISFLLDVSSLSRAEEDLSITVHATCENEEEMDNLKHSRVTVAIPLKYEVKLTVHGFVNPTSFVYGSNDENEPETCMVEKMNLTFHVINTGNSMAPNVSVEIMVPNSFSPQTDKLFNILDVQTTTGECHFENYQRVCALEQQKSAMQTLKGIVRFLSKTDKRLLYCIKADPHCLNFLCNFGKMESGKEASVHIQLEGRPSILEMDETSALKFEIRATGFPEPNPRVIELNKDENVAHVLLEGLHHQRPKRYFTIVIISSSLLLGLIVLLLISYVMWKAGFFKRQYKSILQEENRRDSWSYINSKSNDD
T1 sequence (P05556 21-798): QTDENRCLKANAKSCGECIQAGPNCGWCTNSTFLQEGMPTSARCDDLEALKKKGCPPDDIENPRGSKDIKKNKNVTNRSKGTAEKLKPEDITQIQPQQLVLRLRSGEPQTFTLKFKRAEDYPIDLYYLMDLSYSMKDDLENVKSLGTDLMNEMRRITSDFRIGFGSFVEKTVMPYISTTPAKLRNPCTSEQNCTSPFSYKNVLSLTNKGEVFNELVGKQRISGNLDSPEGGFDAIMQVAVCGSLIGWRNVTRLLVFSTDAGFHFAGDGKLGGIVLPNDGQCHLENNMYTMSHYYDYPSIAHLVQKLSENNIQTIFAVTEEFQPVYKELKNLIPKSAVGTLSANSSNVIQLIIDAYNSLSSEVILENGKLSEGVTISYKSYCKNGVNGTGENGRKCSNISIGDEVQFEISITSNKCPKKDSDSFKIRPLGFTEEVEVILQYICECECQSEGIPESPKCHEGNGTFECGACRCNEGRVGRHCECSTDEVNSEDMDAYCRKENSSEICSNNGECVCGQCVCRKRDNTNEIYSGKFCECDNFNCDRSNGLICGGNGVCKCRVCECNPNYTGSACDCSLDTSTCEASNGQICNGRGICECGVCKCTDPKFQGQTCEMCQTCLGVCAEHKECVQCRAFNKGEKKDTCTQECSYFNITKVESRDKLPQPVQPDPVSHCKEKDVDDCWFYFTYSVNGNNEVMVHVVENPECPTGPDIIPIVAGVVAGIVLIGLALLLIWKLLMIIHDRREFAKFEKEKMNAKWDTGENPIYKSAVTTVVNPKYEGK

By IC50 is commonly meant the point on the concentration scale where inhibition reaches its midpoint. The compound `O=C(O)CC(NC(=O)C(CCC(=O)N1CCOCC1)NC(=O)Cc1ccc(NC(=O)Nc2ccccc2)cc1)c1ccc2c(c1)OCO2` (stereo not shown) [compound 1216] gave an IC50 of 50 to 10000 nM.

On to `COc1ccc(C(CC(=O)O)NC(=O)C(CCCCNC(=O)OCc2ccccc2)NC(=O)Cc2ccc(NC(=O)Nc3ccccc3C)cc2)cc1OC` (stereo not shown) [compound 1217], for which the IC50 is under 50 nM.

As for `COc1ccc(C(CC(=O)O)NC(=O)C(CC(C)C)NC(=O)Cc2ccc(NC(=O)Nc3ccccn3)cc2)cc1OC` (stereo not shown) [compound 1218], the IC50 was 50 to 10000 nM.

Compound `COc1ccc(C(CC(=O)O)NC(=O)C(CC(C)C)NC(=O)Cc2ccc(NC(=O)Nc3cccnc3)cc2)cc1OC` (stereo not shown) [compound 1219] displayed an IC50 of 50 to 10000 nM.

Turning to `COc1ccc(C(CC(=O)O)NC(=O)C(CC(C)C)NC(=O)Cc2ccc(NC(=O)Nc3cccnc3C)cc2)cc1` (stereo not shown) [compound 1220], the IC50 lay in the range of 50 to 10000 nM.

In turn, `COc1cc(CC(=O)NC(CC(C)C)C(=O)NC(CC(=O)O)c2ccc3c(c2)OCO3)ccc1NC(=O)Nc1ccccc1C` (stereo not shown) [compound 1221] showed an IC50 of under 50 nM.

In turn, `COc1cc(CC(=O)NC(CC(C)C)C(=O)NC(CC(=O)O)c2ccc3c(c2)OCO3)ccc1NC(=O)Nc1ccccc1Cl` (stereo not shown) [compound 1222] came in with an IC50 of under 50 nM.

On to `COc1ccc(C(CC(=O)O)NC(=O)C(CCSC)NC(=O)Cc2ccc(NC(=O)Nc3ccccc3C)cc2)cc1OC` (stereo not shown) [compound 1224], for which the IC50 was under 50 nM.

For the compound `COc1ccc(C(CC(=O)O)NC(=O)C(CCSC)NC(=O)Cc2ccc(NC(=O)Nc3ccccc3C)cc2)cc1` (stereo not shown) [compound 1238], the IC50 was under 50 nM.

As to `Cc1ccccc1NC(=O)Nc1ccc(CC(=O)NC(CCS(C)(=O)=O)C(=O)NC(CC(=O)O)c2ccc3c(c2)OCO3)cc1` (stereo not shown) [compound 1245], the IC50 is under 50 nM.

On to `Cc1ccccc1NC(=O)Nc1ccc(CC(=O)NC(CC(C)C)C(=O)NC(CC(=O)O)c2ccc(F)cc2)cc1` (stereo not shown) [compound 1248], for which the IC50 was under 50 nM.

`CC(=O)NCCCCC(NC(=O)Cc1ccc(NC(=O)Nc2ccccc2C)cc1)C(=O)NC(CC(=O)O)c1ccc2c(c1)OCO2` (stereo not shown) [compound 1270] showed an IC50 of under 50 nM.

Consider `Cc1ccccc1NC(=O)Nc1ccc(CC(=O)NC(CC(C)C)C(=O)NC(CC(=O)O)c2ccc3c(c2)OCO3)cc1` (stereo not shown) [compound 1282], for which the half-maximal inhibitory concentration (IC50) was under 50 nM.

On to `Cc1ccccc1NC(=O)Nc1ccc(CC(=O)NC(CCCCNS(C)(=O)=O)C(=O)NC(CC(=O)O)c2ccc3c(c2)OCO3)cc1` (stereo not shown) [compound 1294], for which the half-inhibitory concentration (IC50) was under 50 nM.

Turning to `Cc1ccccc1NC(=O)Nc1ccc(CC(=O)NC(CC(C)C)C(=O)NC(CC(=O)O)c2ccc(C(=O)O)cc2)cc1` (stereo not shown) [compound 1321], the IC50 is under 50 nM.

With `COc1nc(CC(=O)NC(CC(C)C)C(=O)NC(CC(=O)O)c2ccc3c(c2)OCO3)ccc1NC(=O)Nc1ccccc1C` (stereo not shown) [compound 1336], the IC50 was under 50 nM.

`CN=C(Nc1ccccc1)Nc1ccc(CC(=O)NC(CC(C)C)C(=O)NC(CC(=O)O)c2ccc3c(c2)OCO3)cc1` (stereo not shown) [compound 1380] displayed an IC50 of 50 to 10000 nM.

`COC(=O)c1ccc(C(CC(=O)O)NC(=O)C(CCCCNS(C)(=O)=O)NC(=O)Cc2ccc(NC(=O)Nc3ccccc3C)cc2)cc1` (stereo not shown) [compound 1382] had an IC50 of under 50 nM.

As to `CC(C)CC(NC(=O)Cc1ccc(Nc2ncc[nH]2)cc1)C(=O)NC(CC(=O)O)c1ccc2c(c1)OCO2` (stereo not shown) [compound 1390], the IC50 was 50 to 10000 nM.
